Experimental data from ChEMBL document CHEMBL4433258, “Structure-activity relationships study of neolamellarin A and its analogues as hypoxia inducible factor-1 (HIF-1) inhibitors” (Bioorg Med Chem Lett, 2019).

Experiments:
[1] = Inhibition of HIF-1 in human HeLa cells transfected with CMV driven renilla luciferase reporter gene incubated for 1 hr under normoxic condition and 12 hrs under hypoxia condition by HRE-based dual luciferase reporter gene assay; type: cell-based
[2] = Cytotoxicity against human HeLa cells assessed as growth inhibition incubated for 60 hrs under normoxic condition by MTT assay; type: cell-based

| SMILES | IC50 [1] | GI50 at 60 h [2] |
| --- | --- | --- |
| O=C(c1ccc(O)cc1)n1cc(-c2ccc(O)cc2)c(-c2ccc(O)cc2)c1 | 18.8 µM | 76 µM |
| COc1ccc(-c2cn(C(=O)C(O)c3ccc(OC)cc3)cc2-c2ccc(OC)cc2)cc1 (stereo unspecified) | 11.9 µM | 44.2 µM |
| COc1ccc(C(=O)n2cc(-c3ccc(OC)cc3)c(-c3ccc(OC)cc3)c2)cc1 | 24.4 µM | > 100 µM |
| O=C(/C=C/c1ccc(O)cc1)n1cc(-c2ccc(O)cc2)c(-c2ccc(O)cc2)c1 | 16.6 µM | 27.3 µM |
| COc1ccc(CCC(=O)n2cc(-c3ccc(OC)cc3)c(-c3ccc(OC)cc3)c2)cc1 | 26.8 µM | > 100 µM |
| O=C(CCc1ccc(O)cc1)n1cc(-c2ccc(O)cc2)c(-c2ccc(O)cc2)c1 | 14.7 µM | 51.5 µM |
| COc1ccc(-c2cn(C(=O)C(OC)c3ccc(OC)cc3)cc2-c2ccc(OC)cc2)cc1 (stereo unspecified) | > 50 µM | > 100 µM |
| O=C(c1ccccc1)n1cc(-c2ccc(O)cc2)c(-c2ccc(O)cc2)c1 | 16.8 µM | 32.9 µM |
| COc1ccc(CC(=O)n2cc(-c3ccc(OC)cc3)c(-c3ccc(OC)cc3)c2)cc1 | 22.5 µM | > 100 µM |
| COc1ccc(/C=C/C(=O)n2cc(-c3ccc(OC)cc3)c(-c3ccc(OC)cc3)c2)cc1 | > 100 µM | > 100 µM |
| O=C(c1ccccc1)n1cc(-c2ccccc2)c(-c2ccccc2)c1 | 16 µM | 67.1 µM |
| COc1ccc(-c2cn(C(=O)c3ccccc3)cc2-c2ccc(OC)cc2)cc1 | 14.6 µM | > 100 µM |
| O=C(Cc1ccc(O)cc1)n1cc(-c2ccc(O)cc2)c(-c2ccc(O)cc2)c1 [NEOLAMELLARIN A] | 10.8 µM | 59.5 µM |
